Earlier results as cited in PubChem BioAssay AID1259409 (Chemical Carcinogenesis Research Information System (CCRIS), 2018).

System: rodent chemically induced tumor inhibition, incidence and multiplicity
Test: CCRIS tumor inhibitor studies

## O=c1c(O)c(-c2ccc(O)c(O)c2)oc2cc(O)cc(O)c12
Carcinogen: BENZO[A]PYRENE, 50-32-8, Dose [Inhibitor]: 25 MG IN 0.1 ML DMSO 3/WK, ADMINISTERED SIMULTANEOUSLY WITH CARCINOGEN FOR DURATION OF STUDY (STUDY DURATION: 368 D), Route [Inhibitor]: DERMAL, Species: MOUSE, Strain/Sex: ICR/FEMALE, Target Tissue: Type of Lesion: SKIN: PAPILLOMA, Dose [Carcinogen]: 5 UG IN 0.1 ML DMSO THAT ALSO CONTAINED AGENT 3/WK FOR DURATION OF STUDY, Promoter: NONE USED
  tumour outcome (control, treated, inhibition, significance): 13/50 (26%), 0/50 (0%), 100%, not calculated
Carcinogen: BENZO[A]PYRENE, 50-32-8, Dose [Inhibitor]: 100 UG IN 0.2 ML ACETONE ONCE 5 MINUTES BEFORE CARCINOGEN TREATMENT (STUDY DURATION: 31 WK), Route [Inhibitor]: DERMAL, Species: MOUSE, Strain/Sex: CD-1/FEMALE, Target Tissue: Type of Lesion: SKIN: PAPILLOMA, Dose [Carcinogen]: 400 NMOL IN 0.2 ML ACETONE ONCE, Promoter: 12-O-TETRADECANOYLPHORBOL-13-ACETATE, 16561-29-8
  tumour outcome (control, treated, inhibition, significance): 90%, 82%, 9%, not calculated
Carcinogen: DIETHYLNITROSAMINE, 55-18-5, N-METHYLNITROSOUREA, 684-93-5, 1,2-DIMETHYLHYDRAZINE, 540-73-8, N-BUTYL-N-(4-HYDROXYB, Carcinogen: DIETHYLNITROSAMINE, 55-18-5, N-METHYLNITROSOUREA, 684-93-5, 1,2-DIMETHYLHYDRAZINE, 540-73-8, N-BUTYL-N-(4-HYDROXYB, Dose [Inhibitor]: 0, 1% IN DIET FOR 4 WK BEGINNING 1 DAY PRIOR TO CARCINOGEN TREATMENT (STUDY DURATION: 36 WK), Route [Inhibitor]: ORAL, Species: RAT, Strain/Sex: F344/MALE, Target Tissue: Type of Lesion: KIDNEY: ADENOMA, Dose [Carcinogen]: 100 MG/KG DEN ONCE, 20 MG/KG MNU 4 TIMES, 40 MG/KG DMH 4 TIMES, 0.05% BBN IN DRINKING WATER FOR 2 WK, 0.1% DHPN IN D, Dose [Carcinogen]: 100 MG/KG DEN ONCE, 20 MG/KG MNU 4 TIMES, 40 MG/KG DMH 4 TIMES, 0.05% BBN IN DRINKING WATER FOR 2 WK, 0.1% DHPN IN D, Promoter: NONE USED
  tumour outcome (control, treated, inhibition, significance): 4/14 (29%), 4/13 (31%), -7%, not significant
Carcinogen: DIETHYLNITROSAMINE, 55-18-5, N-METHYLNITROSOUREA, 684-93-5, 1,2-DIMETHYLHYDRAZINE, 540-73-8, N-BUTYL-N-(4-HYDROXYB, Carcinogen: DIETHYLNITROSAMINE, 55-18-5, N-METHYLNITROSOUREA, 684-93-5, 1,2-DIMETHYLHYDRAZINE, 540-73-8, N-BUTYL-N-(4-HYDROXYB, Dose [Inhibitor]: 0, 1% IN DIET FOR 4 WK BEGINNING 1 DAY PRIOR TO CARCINOGEN TREATMENT (STUDY DURATION: 36 WK), Route [Inhibitor]: ORAL, Species: RAT, Strain/Sex: F344/MALE, Target Tissue: Type of Lesion: KIDNEY: NEPHROBLASTOMA, Dose [Carcinogen]: 100 MG/KG DEN ONCE, 20 MG/KG MNU 4 TIMES, 40 MG/KG DMH 4 TIMES, 0.05% BBN IN DRINKING WATER FOR 2 WK, 0.1% DHPN IN D, Dose [Carcinogen]: 100 MG/KG DEN ONCE, 20 MG/KG MNU 4 TIMES, 40 MG/KG DMH 4 TIMES, 0.05% BBN IN DRINKING WATER FOR 2 WK, 0.1% DHPN IN D, Promoter: NONE USED
  tumour outcome (control, treated, inhibition, significance): 7/14 (50%), 6/13 (46%), 8%, not significant
Carcinogen: DIETHYLNITROSAMINE, 55-18-5, N-METHYLNITROSOUREA, 684-93-5, 1,2-DIMETHYLHYDRAZINE, 540-73-8, N-BUTYL-N-(4-HYDROXYB, Carcinogen: DIETHYLNITROSAMINE, 55-18-5, N-METHYLNITROSOUREA, 684-93-5, 1,2-DIMETHYLHYDRAZINE, 540-73-8, N-BUTYL-N-(4-HYDROXYB, Dose [Inhibitor]: 0, 1% IN DIET FOR 4 WK BEGINNING 1 DAY PRIOR TO CARCINOGEN TREATMENT (STUDY DURATION: 36 WK), Route [Inhibitor]: ORAL, Species: RAT, Strain/Sex: F344/MALE, Target Tissue: Type of Lesion: LARGE INTESTINE: ADENOMA, Dose [Carcinogen]: 100 MG/KG DEN ONCE, 20 MG/KG MNU 4 TIMES, 40 MG/KG DMH 4 TIMES, 0.05% BBN IN DRINKING WATER FOR 2 WK, 0.1% DHPN IN D, Dose [Carcinogen]: 100 MG/KG DEN ONCE, 20 MG/KG MNU 4 TIMES, 40 MG/KG DMH 4 TIMES, 0.05% BBN IN DRINKING WATER FOR 2 WK, 0.1% DHPN IN D, Promoter: NONE USED
  tumour outcome (control, treated, inhibition, significance): 7/14 (50%), 5/13 (38%), 24%, not significant
Carcinogen: DIETHYLNITROSAMINE, 55-18-5, N-METHYLNITROSOUREA, 684-93-5, 1,2-DIMETHYLHYDRAZINE, 540-73-8, N-BUTYL-N-(4-HYDROXYB, Carcinogen: DIETHYLNITROSAMINE, 55-18-5, N-METHYLNITROSOUREA, 684-93-5, 1,2-DIMETHYLHYDRAZINE, 540-73-8, N-BUTYL-N-(4-HYDROXYB, Dose [Inhibitor]: 0, 1% IN DIET FOR 4 WK BEGINNING 1 DAY PRIOR TO CARCINOGEN TREATMENT (STUDY DURATION: 36 WK), Route [Inhibitor]: ORAL, Species: RAT, Strain/Sex: F344/MALE, Target Tissue: Type of Lesion: LARGE INTESTINE: CARCINOMA, Dose [Carcinogen]: 100 MG/KG DEN ONCE, 20 MG/KG MNU 4 TIMES, 40 MG/KG DMH 4 TIMES, 0.05% BBN IN DRINKING WATER FOR 2 WK, 0.1% DHPN IN D, Dose [Carcinogen]: 100 MG/KG DEN ONCE, 20 MG/KG MNU 4 TIMES, 40 MG/KG DMH 4 TIMES, 0.05% BBN IN DRINKING WATER FOR 2 WK, 0.1% DHPN IN D, Promoter: NONE USED
  tumour outcome (control, treated, inhibition, significance): 3/14 (21%), 5/13 (38%), -81%, not significant
